The assay concerns Paracoccus sp. strain K-185. Put plainly: Glutamate supplementation, test tube culture (soybean meal medium), carotenoid by HPLC. In kind it is cell-based. The protocol:
In the examples, carotenoids were quantified by high performance liquid chromatography (HPLC) as follows.
Two columns of Wakosil-II 5 SIL-100 (φ4.6×250 mm) (Wako Pure Chemical Industries, Ltd., Japan) were connected to each other for use as a column. Elution was performed by flowing an n-hexane-tetrahydrofuran-methanol mixed solution (40:20:1), which was a mobile phase, at a flow rate of 1.0 mL/minute at a constant temperature around room temperature. The measurement was performed as follows. Samples were each dissolved in tetrahydrofuran and then diluted 100-fold with the mobile phase. Each dilution was injected in a volume of 20 μL. The column eluate was detected at a wavelength of 470 nm. As a reference for quantification, astaxanthin (SIGMA, Cat. No. A9335) was used. The astaxanthin concentration of the reference solution was determined using the following equation after measuring the absorbance (A) of the reference solution at 477 nm and the area percentage % (B) of the astaxanthin peak at the time of HPLC analysis under the above conditions.
Next, a medium of the following composition (glucose 30 g/L, soybean meal 20 g/L, ammonium sulfate 1.5 g/L, potassium dihydrogenphosphate 1.5 g/L, disodium hydrogenphosphate 12-hydrate 3.8 g/L, calcium chloride dihydrate 5.0 g/L, magnesium sulfate 7-hydrate 0.7 g/L, iron sulfate 7-hydrate 0.6 g/L, ester-based defoaming agent 0.2 g/L) was dispensed in 8 ml volumes into cotton-plugged test tubes having an inner diameter of 18 mm (2 tubes in total). One of the test tubes was supplemented with monosodium L-glutamate monohydrate to 30 mmol/L, while the other was supplemented with nothing as a control.
The resulting culture solution was then inoculated in 0.1. ml volumes into the two test tube mediums and cultured with shaking at 28° C. for 3 days at 300 spm. Each culture solution was measured for its carotenoid concentration by HPLC.

Setting [1] is: Glutamic acid concentration 30 mmol/L, 28° C. for 3 days.

As to `N[C@@H](CCC(=O)O)C(=O)O` [Glutamic acid, glutamic acid], the “produced carotenoid concentration compared to the sample without glutamic acid” value (30 mmol/L) was “higher produced carotenoid concentration”. Under setting [1], this molecule came in with a 3-Hydroxyechinenone of 0.1 mg/L, an Adonixanthin of 1.6 mg/L, an Astaxanthin of 9.2 mg/L and an Asteroidenone of 0.1 mg/L. Besides, under setting [1], the Canthaxanthin is reported as 1.3 mg/L, the Echinenone was 0.6 mg/L, the Phoenicoxanthin was found to be 2.0 mg/L and the “Total carotenoid” value is recorded as 17.1 mg/L. Under setting [1], this molecule had a Zeaxanthin of 0.03 mg/L, a β-Carotene of 2.1 mg/L and a β-Cryptoxanthin of 0.02 mg/L.

The values above are taken from US8993282B2, “Carotenoid fermentation method” (JX Nippon Oil & Energy Corporation, priority 2008, dated 2015).
